Patent US20200138822A1, “TOPICAL COMPOSITIONS COMPRISING PENTOXIFYLLINE AND METHODS OF TREATMENT USING THE SAME” (priority 2018, published 2020)

Legend:
[1] = times greater than PTX; cited from earlier work
[2] = system: BD patients; experiment: Randomized, open-label clinical study: adverse events / safety; conditions: 14-day study
Method: (§1) A randomized, open-label, proof-of-concept clinical study was conducted under an FDA Investigational New Drug Application (IND). […] The CLC was administered orally as a pill and dosed as determined by the subject's physician. No less than every 48 hours, subjects' ulcers were photographed and examined using digital image processing to determine ulcer area, over a period of 14 days, which include daily collection of adverse events, ulcer number, and pain scores.
(§2) Inclusion criteria required the recent (<2 days) appearance of a new oral ulcer. Patients on immunosuppressant therapies were excluded from the study.
All adverse events were reviewed in real time by the treating physician investigator.

[3] = system: oral ulcers of BD patients; experiment: Randomized, open-label clinical study: daily average number of oral ulcers; format: in vivo, human; conditions: during the two-week treatment period; mean +/- SD
Method: as §1, §2
The total number of oral ulcers were also counted at each in-person visit, and the daily average number of oral ulcers were calculated during the treatment period.

[4] = system: oral ulcers of BD patients; experiment: Randomized, open-label clinical study: index ulcer healing (ulcer area by digital image processing); format: in vivo, human
Method: as §1, §2
Patients were contacted daily for 14 consecutive days and were examined in-person no less than every 48 hours except for weekends. On the first day of entry into the study, the largest ulcer was identified and photographed as the “index ulcer”; its location was recorded and it was subsequently photographed at every in-person visit. Photographs were made with a paper ruler showing millimeter graduations lain in the same plane as the ulcer itself. Graphical processing software was used to compute the ulcer area in square millimeters; this software was calibrated from the paper ruler image and required drawing a line around the image of the ulcer margin.
Then, the proportion of patients with undetectable index ulcer (defined as those with an ulcer area of less than 1 mm^2) at day 4 was compared. Lastly, the trend in mean ulcer area over 14 days was compared as well as the results' sensitivity to outliers.

[5] = Day 2, PTX+CLC n = 18, CLC n = 21
[6] = Day 4 clearance, undetectable = ulcer area less than 1 mm^2, n = 18 / n = 21

## Cn1cnc2c1c(=O)n(CCCC(=O)O)c(=O)n2C [Metabolite V, 1-[3-carboxypropyl]-3,7-dimethylxanthine]
[1]
  Plasma levels of metabolite relative to PTX: eight

## CC(O)CCCCn1c(=O)c2c(ncn2C)n(C)c1=O (stereo not shown) [Metabolite 1, 1-[5-hydroxyhexyl]-3,7-dimethylxanthine]
[1]
  Plasma levels of metabolite relative to PTX: five

## COc1cc2c(c(OC)c1OC)-c1ccc(OC)c(=O)cc1[C@@H](NC(C)=O)CC2 [CLC, colchicine]
[2]
  Serious adverse events: No serious adverse events occurred
[2]; adverse event
  Dysgeusia - % of patients: 0%
  Dysgeusia - number of patients: 0
  Limited dermal rashes - % of patients: 29%
  Limited dermal rashes - number of patients: 6
  Nausea - % of patients: 10%
  Nausea - number of patients: 2
  Vomiting - number of patients: none
[3]
  Daily average number of oral ulcers: 1.89+/−1.36
[4]; [5]
  Patients with Index Ulcer Growth - %: (80%)
  Patients with Index Ulcer Growth - Number: 16
  Patients with Index Ulcer Shrinkage - %: (19%)
  Patients with Index Ulcer Shrinkage - Number: 4
[4]; Day 2, PTX+CLC n = 18, CLC n = 21, listed as CLC-only
  Patients with Index Ulcer Shrinkage - %: 19%
[4]; Day 4, n = 18 / n = 21
  Patients with Remaining Ulcers - %: (71%)
  Patients with Remaining Ulcers - Number: 15
[4]; [6]
  Patients with Undetectable Ulcers - %: (29%)
  Patients with Undetectable Ulcers - Number: 6
[4]; Day 4 clearance, undetectable = ulcer area less than 1 mm^2, n = 18 / n = 21, listed as CLC-only
  Patients with Undetectable Ulcers - %: 29%
[4]; FIG. 1, over 14 days from day zero
  Mean index ulcer area by treatment group (trend): first growing then slowly decreasing
